The values that follow come from PMC8861050, “Design, synthesis and evaluation of novel 2-oxoindoline-based acetohydrazides as antitumor agents” (Scientific Reports, 2022).

The structures appear in SMILES notation.

Data set [1] has as its system SW620 (colon cancer). As to the kind of experiment: SRB cytotoxicity assay, SW620. The format is cell-based. Particulars: Homo sapiens, SW-620, 48 h incubation, mean ± SEM of 3 independent experiments. In short, it runs like this:
(§1)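 Cells in DMEM were seeded at 3 × 10^4 cells/mL and preincubated 24 h at 37 °C, 5% CO2. Compounds were added in medium at 1% DMSO for 48 h. Cell density was read by sulforhodamine B staining, with IC50 by probit analysis as the mean of three independent screens.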
In general terms: Sulforhodamine B stains cellular protein and so reports cell mass.

Data set [2] concerns PC3 (prostate cancer). As to the kind of experiment: SRB cytotoxicity assay, PC3. The format is cell-based. Particulars: Homo sapiens, 48 h incubation, mean ± SEM of 3 independent experiments. In short, it runs like this:
as §1

The test system of data set [3] is NCI-H23 (lung cancer). As to the kind of experiment: SRB cytotoxicity assay, NCI-H23. The format is cell-based. Particulars: Homo sapiens, 48 h incubation, mean ± SEM of 3 independent experiments. The essentials: as §1
The nature of data set [4]: Cytotoxicity on normal mesenchymal stem cells. The format is cell-based. Particulars: human bone marrow-derived mesenchymal stem cells; mean ± SEM; read-out: Cytotoxicity (IC50) MSCs.
The subject of data set [5] is U937 human lymphoma cells. Description: Cell cycle analysis (PI, flow cytometry). The format is cell-based. Particulars: 24 h. The procedure: U937 human lymphoma cells (5 × 10^5/mL per well) were plated in 6-well culture plates and allowed to grow for 24 h. In our first experiment, we examined the effects of 4f, 4h, 4n, 4o, 4p, and PAC-1 on cell cycles at 50 µM. In the second experiment, we examined the dose-dependent effect of 4o at 5, 10, and 30 µM and PAC-1 at 30 µM on cell cycles. The cells were treated with compounds for 24 h, and then harvested. The harvested cells were washed twice with ice-cold PBS, fixed in 75% ice-cold ethanol, and stained with propidium iodide (PI) in the presence of RNase at room temperature for 30 min. The stained cells were analyzed for DNA content using a FACScalibur flow cytometer (BD Biosciences, San Jose, CA, USA) and the data were processed using Cell Quest Pro software (BD Biosciences).
Figure 3 Cell cycle analysis after treatment with some compounds. U937 human lymphoma cells were treated with compounds (50 µM) for 24 h. The harvested cells were stained with propidium iodide (PI) in the presence of RNase and then were analyzed for DNA content by using flow cytometry. Ten thousand cells were acquired (n = 3). UN untreated, VH vehicle (DMSO. 0.1%). Representative histograms (A) and bar graphs (B) are shown. p values were calculated using one-way ANOVA in GraphPad Software (San Diego, CA, USA). *p < 0.01 vs VH control.
Figure 4 Cell cycle analysis under treatment with different concentrations of compound 4o. U937 human lymphoma cells were treated with compound 4o at 5, 10 and 30 µM or PAC-1 (30 µM) for 24 h. The harvested cells were stained with propidium iodide (PI) in the presence of RNase and then were analyzed for DNA content by using flow cytometry. Ten thousand cells were acquired (n = 3). UN untreated, VH vehicle (DMSO. 0.1%). Representative histograms (A) and bar graphs (B) are shown. p values were calculated using one-way ANOVA in GraphPad Software (San Diego, CA, USA). *p < 0.01 vs VH control.

Data set [6] has as its system SW620, PC-3, and NCI-H23 cell lines. Description: Cytotoxicity, summary statements over three human cancer cell lines. Particulars: SW620, PC-3, NCI-H23. The format is cell-based. The text has this:
Three human cancer cell lines: colon cancer (SW620), prostate cancer (PC3), and lung cancer (NCI-H23) were used for sceening the cytotoxicity of the compounds. The cancer cells were purchased from American Type Culture Collection (Manassas, VA, USA). Other reagents/media for cell culture were obtained from GIBCO (Grand Island, New York, USA). The testing cancer cells were culture in Dulbecco’s Modified Eagle Medium until confluence. Then, they were trypsinized and suspended at the level of 3 × 10^4 cells/mL of cell culture medium. On day 0, cancer cells were seeded at a volume of 180 µL/well of 96-well plates and incubated for 24 h at 37 °C in a 5% CO2 incubator. On day 1, 20 µL of various concentrations of testing compounds were added to each well of the 96-well plates. Chemicals were dissolved in dimethyl sulfoxide (DMSO, stock) and diluted in culture medium (1% DMSO) before adding to the culture. After 48 h incubation, the sulforhodamine B assay was used for cell density determination with slight modifications[22]–[26]. The Probits were used for the calculation of IC50 values. The reported IC50 were the averages of three independent screening (SD ≤ 10%)[27].
Overally, 5-fluorinated compounds (4i–p and 5d–f) were slightly more cytotoxic than non-fluorinated ones (4a–h, 5a–c). […]

By IC50 is commonly meant the concentration that inhibits the measured activity by half. In general, melting point refers to the temperature, or range, at which the solid turns liquid. In the case of `COc1ccc(/C=N/NC(=O)CN2C(=O)Cc3cc(F)ccc32)c(O)c1` [Compound 4o, (E)-N'-(2-Hydroxy-4-methoxybenzylidene)-2-(5-fluoro-2-oxoindolin-1-yl)acetohydrazide], the melting point was in the range of 186 to 187 °C. Further, the IC50 in data set [1] is 1880 ± 20 nM. The molecule also had an IC50 in data set [2] of 1830 ± 70 nM. In data set [3], this molecule gave an IC50 of 1000 ± 10 nM. For the same molecule, the IC50 in data set [4] came to 12800 ± 710 nM. In data set [5] (5 µM), the “Effect on cell cycle, dose dependence” value is on record as “inhibited cell cycles”. Further, the “Effect on cell cycle distribution” value in data set [5] (50 µM) was “accumulated U937 cells in the S phase”. Further, the “IC50 values relative to PAC-1” value in data set [6] is listed as “three- to five-fold lower”.
